SMILES strings stand for the structures.

This experiment deals with hNT neurons. The experiment is described as follows: Soma size and neurite outgrowth of TH+ hNT cells (image analysis). The class given is cell-based, human. The conditions noted are these: for soma sizes versus control: 5DIV NaCl or KCl-treated cultures; for neurite outgrowth versus control: NaCl and KCl-treated 5DIV. The protocol: The same series of slides immunostained for TH were employed to measure the soma size (μm^2) and neurite outgrowth (μm) of appropriately 50 TH+ cells per representative culture experiment using a computerized image analysis program (Image-Pro Plus, Media Cybernetics, Inc., Silver Springs, Md.) at 20× objective. The results in the morphological assessment study are reported as mean ±SEM and were analyzed using Student's t-test.

As to `[Cl-].[K+]` [KCl], the “soma sizes versus control” value was “not significantly different from control” and the “neurite outgrowth versus control” value is listed as “did not significantly differ from control values”.

For `[Cl-].[Na+]` [NaCl], the “soma sizes versus control” value is “not significantly different from control” and the “neurite outgrowth versus control” value is on record as “did not significantly differ from control values”.
